Test: xn = mol fraction of the nth substance listed
Conditions: 101 kPa, Liquid; for speed of sound: Sing-around technique in a fixed-path interferometer; for mass density: Vibrating tube method; for viscosity: Falling or rolling sphere viscometry

CCCCn1cc[n+](C)c1.F[B-](F)(F)F [1-butyl-3-methylimidazolium tetrafluoroborate] + CO
Conditions | mass density, 298.15 K [kg/m3] | mass density, 308.15 K [kg/m3] | mass density, 318.15 K [kg/m3] | speed of sound, 298.15 K [m/s] | speed of sound, 308.15 K [m/s] | speed of sound, 318.15 K [m/s] | viscosity, 308.15 K [mPa·s] | viscosity, 318.15 K [mPa·s]
x1 = 0.0501 | 875 | 866 | 857 | – | 1150 | 1121 | 0.679 | 0.6
x1 = 0.0999 | 936.8 | 928.1 | 919.4 | – | 1211 | 1184 | 1.01 | 0.873
x1 = 0.1498 | 982.8 | 974.3 | 965.8 | – | 1262 | 1236 | 1.33 | 1.14
x1 = 0.2 | 1018.9 | 1010.6 | 1002.4 | – | 1305 | 1280 | 1.8 | 1.52
x1 = 0.2999 | 1071 | 1063.1 | 1055.1 | – | 1372 | 1348 | 3.02 | 2.51
x1 = 0.4008 | 1106.8 | 1099 | 1091.3 | – | 1418 | 1394 | 4.88 | 3.96
x1 = 0.4995 | 1132.5 | 1124.9 | 1117.4 | – | 1454 | 1430 | 8.17 | 6.45
x1 = 0.5999 | 1152.8 | 1145.3 | 1137.9 | 1503 | 1479 | 1456 | 12.7 | 9.83
x1 = 0.6991 | 1168.5 | 1161.1 | 1153.8 | 1524 | 1500 | 1477 | 18.5 | 13.7
x1 = 0.8006 | 1181.7 | 1174.5 | 1167.3 | 1540 | 1517 | 1493 | 28.4 | 20.4
x1 = 0.8494 | 1187.1 | 1179.9 | 1172.7 | 1547 | 1524 | 1501 | 34.4 | 24.2
x1 = 0.9006 | 1192.4 | 1185.3 | 1178.2 | 1554 | 1531 | 1508 | 43.3 | 30
x1 = 0.9501 | 1196.9 | 1189.8 | 1182.7 | 1562 | 1538 | 1515 | 53.3 | 36
x1 = 1 | 1201.3 | 1194.2 | 1187.2 | 1565 | 1542 | 1519 | 64.8 | 42.7
